These are literature values, as cited in patent US20140235552A1 (priority 2013, published 2014).

No end group written: not given here.

The subject of data set [1] is gastrin levels. As to conditions: 90 mg/day for 6 years or greater; cited from earlier work.
The test system of data set [2] is patients with type 2 diabetes. To be noted: 12 weeks, cited from earlier work.
In data set [3] the test system is beta cell mass. To be noted: after infusion in rats; cited from earlier work.
Data set [4] has as its system human pancreatic ductal tissue. To be noted: in vitro, without epidermal growth factor; cited from earlier work.

Regarding `Cc1c(OCC(F)(F)F)ccnc1C[S+]([O-])c1nc2ccccc2[nH]1` (stereo not shown) [Lansoprazole, 1H-Benzimidazole,2-[[[3-methyl-4-(2,2,2-trifluoroethoxy)-2-pyridinyl]methyl]sulfinyl]-2-[[[3-Methyl-4-(2,2,2-trifluoroethoxy)-2-pyridyl]-methyl]sulfinyl]benzimidazole], in data set [1], the “gastrin levels relative to normal” value is reported as about 7 fold and the safety profile result is “sustained safety profile”.

As to `COc1ccc2nc([S@@+]([O-])Cc3ncc(C)c(OC)c3C)[nH]c2c1` [esomeprazole], the “increase in area under the curve (AUC) of gastrin” value in data set [2] (20 type 2 diabetes patients, 40 mg) is on record as 9 fold. Moreover, the “insulin secretion, glycaemic control or cardiovascular disease biomarkers” value in data set [2] (type 2 diabetes, authors' conclusion) is reported as “did not improve”. Further, the “change in insulin AUC” value in data set [2] (type 2 diabetes, inventor's reading of the published data) is recorded as “no decline”.

In the case of “gastrin: gastrointestinal hormone demonstrated to result in new beta cell formation (QGPWLEEEEEAYGWMDF; ends and bridges not checked; UniProt P01350 76-92, looked up)”, in data set [3], the beta cell mass entry is listed as “doubling”. In addition, the “beta cell neogenesis from human pancreatic ductal tissue” value in data set [4] was “induce beta cell neogenesis”.
